Broadly, the IC50 is the point on the concentration scale where inhibition reaches its midpoint. Higher therefore signals weaker potency in that assay.

Molecules are shown by their SMILES. Where a name gives a salt, the structure may show the parent alone.

This assay has as its target T1, human liver glycogen phosphorylase a (HLGPa) (Homo sapiens, UniProt P06737).
T1 construct: creating a full-length cDNA fused at the 5′ end to codons for methionine-glycine-alanine-histidine; 6xHis tag (leader Met-Gly-Ala-His6-Gly-Gly) (N); made in house; host or cells: E. coli (bacterial expression plasmid pTXK1007LTev)
T1 sequence (P06737 2-847 limits assumed): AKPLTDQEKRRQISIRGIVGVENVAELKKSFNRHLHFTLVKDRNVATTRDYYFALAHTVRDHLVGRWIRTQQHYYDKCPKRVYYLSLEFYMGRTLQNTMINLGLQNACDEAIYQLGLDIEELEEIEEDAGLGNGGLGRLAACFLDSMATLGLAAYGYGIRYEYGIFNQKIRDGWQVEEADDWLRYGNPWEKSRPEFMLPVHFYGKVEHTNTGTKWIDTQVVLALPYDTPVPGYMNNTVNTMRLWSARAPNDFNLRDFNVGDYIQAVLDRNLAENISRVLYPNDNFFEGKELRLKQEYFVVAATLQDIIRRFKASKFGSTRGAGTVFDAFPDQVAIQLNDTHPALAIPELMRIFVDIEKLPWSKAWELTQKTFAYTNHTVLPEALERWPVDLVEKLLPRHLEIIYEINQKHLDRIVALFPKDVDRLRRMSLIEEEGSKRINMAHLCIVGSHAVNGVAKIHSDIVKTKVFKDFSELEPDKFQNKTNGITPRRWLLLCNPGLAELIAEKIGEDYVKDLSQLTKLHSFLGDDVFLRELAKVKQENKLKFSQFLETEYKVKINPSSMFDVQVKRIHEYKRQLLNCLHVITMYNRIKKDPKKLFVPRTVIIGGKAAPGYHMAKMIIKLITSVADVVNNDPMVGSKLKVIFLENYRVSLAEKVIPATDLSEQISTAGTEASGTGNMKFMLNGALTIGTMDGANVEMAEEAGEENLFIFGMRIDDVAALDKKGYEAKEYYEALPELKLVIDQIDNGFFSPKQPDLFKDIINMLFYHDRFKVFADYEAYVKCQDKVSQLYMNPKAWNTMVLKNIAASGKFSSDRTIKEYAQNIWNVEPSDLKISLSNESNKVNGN
Put plainly: Human liver glycogen phosphorylase a enzymatic activity assay (coupled, fluorescent resorufin readout, with and without 10 mM glucose). The format is biochemical.

Where [1] appears, read: human liver glycogen phosphorylase a enzymatic activity assay.
[2] abbreviates: human liver glycogen phosphorylase a, table does not say whether with or without 10 mM glucose.

`O=C(Nc1cc(-c2ccccc2)sc1C(=O)N[C@H](C(=O)O)C1CCCCC1)Nc1c(Cl)cccc1Cl` [Example 411, (2S)-cyclohexyl({[3-({[(2,6-dichlorophenyl)amino]carbonyl}amino)-5-phenyl-2-thienyl]carbonyl}amino)ethanoic acid] had an IC50 under setting [1] of 0.12 µM.

`CC[C@H](C)[C@H](NC(=O)c1cc2ccccc2cc1NC(=O)Nc1c(C)cccc1C)C(=O)O` [Example 23, N-[3-({[(2,6-dimethylphenyl)amino]carbonyl}amino)-2-naphthoyl]-L-isoleucine] displayed an IC50 under setting [1] of 0.89 µM.

`Cc1ccccc1NC(=O)Nc1cc2ccccc2cc1C(=O)N[C@@H](CCC(=O)O)C(=O)O` [Example 42, N-[3-({[(2-methylphenyl)amino]carbonyl}amino)-2-naphthoyl]-L-glutamic acid] had an IC50 under setting [1] of 28.3 µM.

For `COc1ccc(-c2ccc(C(=O)N[C@H](C(=O)O)[C@@H](C)OC(C)(C)C)c(NC(=O)Nc3c(Cl)cc(OC(F)(F)F)cc3Cl)c2)cc1` [Example 232, N-{[3-{[({2,6-Dichloro-4-[(trifluoromethyl)oxy]phenyl}amino)carbonyl]amino}-4′-(methyloxy)-4-biphenylyl]carbonyl}-O-(1,1-dimethylethyl)-L-threonine], the IC50 under setting [2] came to 0.007 µM.

Consider `Cc1cc(C)c(NC(=O)Nc2cc3ccccc3cc2C(=O)NC2(C(=O)O)CCN(C(=O)OC(C)(C)C)CC2)c(C)c1` [Example 287, 1-{[(1,1-Dimethylethyl)oxy]carbonyl}-4-({[3-({[(2,4,6-trimethylphenyl)amino]carbonyl}amino)-2-naphthalenyl]carbonyl}amino)-4-piperidinecarboxylic acid], for which, under setting [2], 0.43 µM corresponded to half-maximal inhibition (IC50).

As to `Cc1cccc(C)c1NC(=O)Nc1cc2ccccc2cc1C(=O)N[C@@H](C)C(=O)O` [Example 18, N-[3-({[(2,6-dimethylphenyl)amino]carbonyl}amino)-2-naphthoyl]-L-alanine], under setting [1], half-maximal inhibition (IC50) was put at 1.48 µM.

`O=C(Nc1sc(Cc2ccccc2)cc1C(=O)N[C@H](C(=O)O)C1CCCCC1)Nc1c(Cl)cccc1Cl` [Example 399] gave an IC50 under setting [1] of 6.7 µM.

Under setting [2], `O=C(Nc1sc(-c2ccccc2)cc1C(=O)O)Nc1c(Cl)cccc1Cl` [Example 382, 2-({[(2,6-dichlorophenyl)amino]carbonyl}amino)-5-phenyl-3-thiophenecarboxylic acid] came in with an IC50 of 1.17 µM.

`CCCCc1ccc(NC(=O)Nc2cc3ccccc3cc2C(=O)N[C@H](C(=O)O)C2CCCCC2)cc1` [Example 247, (2S)-({[3-({[(4-butylphenyl)amino]carbonyl}amino)-2-naphthalenyl]carbonyl}amino)(cyclohexyl)ethanoic acid]: it took 10.4 µM to reach half-maximal inhibition under setting [2] (IC50).

Consider `Cc1cc(C)c(NC(=O)Nc2cc(Cl)cnc2C(=O)NC2(C(=O)O)CCCCCC2)c(C)c1` [Example 319, 1-({[5-chloro-3-({[(2,4,6-trimethylphenyl)amino]carbonyl}amino)-2-pyridinyl]carbonyl}amino)cycloheptanecarboxylic acid], for which the IC50 under setting [2] amounted to 0.47 µM.

`CCCC[C@H](NC(=O)c1ccc(-c2ccc(OC)cc2)cc1NC(=O)Nc1c(C)cc(C)cc1C)C(=O)O` [Example 219, N-{[4′-(methyloxy)-3-({[(2,4,6-trimethylphenyl)amino]carbonyl}amino)-4-biphenylyl]carbonyl}-L-norleucine] had an IC50 under setting [2] of 0.015 µM.

In the case of `CSCC[C@H](NC(=O)c1cc2ccccc2cc1NC(=O)Nc1ccccc1C)C(=O)O` [Example 43, N-[3-({[(2-methylphenyl)amino]carbonyl}amino)-2-naphthoyl]-L-methionine], the IC50 under setting [1] came to 18.9 µM.

Consider `Cc1ccccc1NC(=O)Nc1cc2ccccc2cc1C(=O)N[C@@H](CC(N)=O)C(=O)O` [Example 17, N-[3-({[(2-methylphenyl)amino]carbonyl}amino)-2-naphthoyl]-L-asparagine], for which the midpoint of inhibition under setting [1], the IC50, lay at 4.72 µM.

`Cc1cc(F)ccc1-c1cc(C(=O)O)c(NC(=O)Nc2c(Cl)cccc2Cl)s1` [Example 420, 2-({[(2,6-dichlorophenyl)amino]carbonyl}amino)-5-(4-fluoro-2-methylphenyl)-3-thiophenecarboxylic acid] came in with an IC50 under setting [1] of 5.64 µM.

As to `Cc1cccc(C)c1NC(=O)Nc1cc2ccccc2cc1C(=O)N[C@@H](CCCCN)C(=O)O` [Example 47, N-[3-({[(2,6-dimethylphenyl)amino]carbonyl}amino)-2-naphthoyl]-L-lysine trifluoroacetate], under setting [1], the IC50 turned out to be 8.06 µM.

In turn, `Cc1cccc(C)c1NC(=O)Nc1cc2ccccc2cc1C(=O)N(CC(=O)O)C1CCCC1` [Example 244, N-cyclopentyl-N-{[3-({[(2,6-dimethylphenyl)amino]carbonyl}amino)-2-naphthalenyl]carbonyl}glycine] showed an IC50 under setting [2] of 0.97 µM.

Under setting [2], `CCCCN(CCCC)c1ccc(C(=O)N[C@H](C(=O)O)C2CCCCC2)c(NC(=O)Nc2c(C)cc(C)cc2C)c1` [Example 207, (2S)-Cyclohexyl({[4-(dibutylamino)-2-({[(2,4,6-trimethylphenyl)amino]carbonyl}amino)phenyl]carbonyl}amino)ethanoic acid] had an IC50 of 16.1 µM.

Compound `COc1cc(NC(=O)Nc2c(C)cccc2C)c(C(=O)N[C@@H](CC2CCCCC2)C(=O)O)cc1OC` [Example 119, 3-cyclohexyl-N-[2-({[(2,6-dimethylphenyl)amino]carbonyl}amino)-4,5-dimethoxybenzoyl]-L-alanine] gave a concentration for half-maximal inhibition (IC50) under setting [1] of 13.6 µM.

With `O=C(Nc1cc(-c2ccc(F)cc2)sc1C(=O)N[C@H](C(=O)O)C1CCCCC1)Nc1c(Cl)cccc1Cl` [Example 387, (2S)-cyclohexyl({[3-({[(2,6-dichlorophenyl)amino]carbonyl}amino)-5-(4-fluorophenyl)-2-thienyl]carbonyl}amino)ethanoic acid], the IC50 under setting [2] was 0.43 µM.

As for `COc1ccc(-c2cnc(C(=O)N[C@H](C(=O)O)C3CCCCC3)c(NC(=O)Nc3c(C)cc(C)cc3C)c2)cc1` [Example 322, (2S)-Cyclohexyl({[5-[4-(methyloxy)phenyl]-3-({[(2,4,6-trimethylphenyl)amino]carbonyl}amino)-2-pyridinyl]carbonyl}amino)ethanoic acid], half-maximal inhibition under setting [2] (IC50) was put at 0.083 µM.

In turn, `Cc1cccc(C)c1NC(=O)Nc1cc2ccccc2cc1C(=O)N[C@@H](CC1CCCCC1)C(=O)O` [Example 145, 3-cyclohexyl-N-{[3-({[(2,6-dimethylphenyl)amino]carbonyl}amino)-2-naphthalenyl]carbonyl}-L-alanine] registered an IC50 under setting [1] of 0.59 µM.

Regarding `Cc1cccc(C)c1NC(=O)Nc1cc2ccccc2cc1C(=O)N[C@@H](Cc1c[nH]c2ccccc12)C(=O)O` [Example 54, N-[3-({[(2,6-dimethylphenyl)amino]carbonyl}amino)-2-naphthoyl]-L-tryptophan trifluoroacetate], the IC50 under setting [1] turned out to be 0.51 µM.

Compound `O=C(Nc1cc2ccccc2cc1C(=O)N[C@@H](CC1CCCCC1)C(=O)O)Nc1c(Cl)cccc1Cl` [Example 146, 3-cyclohexyl-N-{[3-({[(2,6-dichlorophenyl)amino]carbonyl}amino)-2-naphthalenyl]carbonyl}-L-alanine] gave an IC50 under setting [1] of 0.54 µM.

Compound `O=C(Nc1sc(-c2ccccc2)cc1C(=O)O)Nc1c(Cl)cc(Cl)cc1Cl` [Example 391, 5-phenyl-2-({[(2,4,6-trichlorophenyl)amino]carbonyl}amino)-3-thiophenecarboxylic acid] yielded an IC50 under setting [2] of 6.78 µM.

In turn, `COc1cc(NC(=O)Nc2c(C)cccc2Cl)c(C(=O)N[C@@H](Cc2c[nH]c3ccccc23)C(=O)O)cc1OC` [Example 75, N-[2-({[(2-chloro-6-methylphenyl)amino]carbonyl}amino)-4,5-dimethoxybenzoyl]-L-tryptophan trifluoroacetate] gave an IC50 under setting [1] of 0.76 µM.

As for `Cc1cccc(C)c1NC(=O)Nc1cc(Cl)ccc1C(=O)NCC(=O)O` [Example 170, N{[4chloro2({[(2,6dimethylphenyl)amino]carbonyl}amino)phenyl]carbonyl}glycine], under setting [1], the IC50 was found to be 2.91 µM.

Consider `Cc1cccc(C(C)C)c1NC(=O)Nc1cc2ccccc2cc1C(=O)NC(C(=O)O)c1ccccc1` (stereo not shown) [Example 104, {[3-({[(2-isopropyl-6-methylphenyl)amino]carbonyl}amino)-2-naphthoyl]amino}(phenyl)acetic acid], for which, under setting [1], the IC50 was found to be 1.04 µM.

Regarding `CCOC(=O)C[C@H](NC(=O)c1cc2ccccc2cc1NC(=O)Nc1c(C)cc(C)cc1C)C(=O)O` [Example 363, (2S)-4-(ethyloxy)-4-oxo-2-({[3-({[(2,4,6-trimethylphenyl)amino]carbonyl}amino)-2-naphthalenyl]carbonyl}amino)butanoic acid], under setting [2], it took 0.36 µM to reach half-maximal inhibition (IC50).

The values are drawn from US20070249670A1, “Glycogen Phosphorylase Inhibitor Compounds and Pharmaceutical Compositions Thereof” (SMITHKLINE BEECHAM CORPORATION, priority 2004, published 2007).
